PMC9136613 (Acta Pharmaceutica Sinica. B, 2022)

Target: T1, CCT4 (Homo sapiens, UniProt P50991)
T1 sequence (P50991 2-539): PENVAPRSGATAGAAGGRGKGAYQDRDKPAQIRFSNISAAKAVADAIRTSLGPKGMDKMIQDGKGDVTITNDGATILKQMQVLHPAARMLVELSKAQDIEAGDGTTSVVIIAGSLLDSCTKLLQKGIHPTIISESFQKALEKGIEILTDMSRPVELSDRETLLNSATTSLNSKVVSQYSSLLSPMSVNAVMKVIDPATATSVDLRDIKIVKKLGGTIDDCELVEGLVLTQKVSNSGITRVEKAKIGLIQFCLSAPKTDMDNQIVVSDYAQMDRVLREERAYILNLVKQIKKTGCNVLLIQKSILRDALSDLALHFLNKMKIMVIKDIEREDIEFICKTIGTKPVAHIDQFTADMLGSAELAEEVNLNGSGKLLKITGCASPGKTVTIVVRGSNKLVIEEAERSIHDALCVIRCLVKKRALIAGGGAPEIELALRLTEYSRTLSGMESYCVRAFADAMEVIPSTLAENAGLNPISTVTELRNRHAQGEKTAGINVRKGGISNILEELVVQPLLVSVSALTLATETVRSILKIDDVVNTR
Experiment: SPR on immobilized recombinant CCT4
Type: binding

anticarin-β
Kd: ~2.2 µM
